These are literature values, as cited in US12691066B2, “Dual-targeting biomimetic liposome with elemene (ELE) and cabazitaxel (CTX), and preparation method and use thereof” (HANGZHOU NORMAL UNIVERSITY, priority 2021, dated 2026).

With `CO[C@H]1C(=O)[C@]2(C)[C@@H](OC)C[C@H]3OC[C@@]3(OC(C)=O)[C@H]2[C@H](OC(=O)c2ccccc2)[C@]2(O)C[C@H](OC(=O)[C@H](O)[C@@H](NC(=O)OC(C)(C)C)c3ccccc3)C(C)=C1C2(C)C` [Cabazitaxel], the solubility in ethanol entry was “soluble” and the solubility in water entry was “almost insoluble”.
